Measured values taken from US20260262643A1, “HERBICIDAL BENZOXAZINES” (FMC CORPORATION, priority 2022, published 2026).
Read-outs that look alike come from different tables or passages of the source.

Key:
corn = assay: Test A preemergence; assay type: in vivo, Zea mays; settings: for Corn plant response rating (crop injury, 0 = no effect, 100 = complete kill) at 125 g/ha / Corn plant response rating (crop injury, 0 = no effect, 100 = complete kill) at 500 g/ha: Zea mays, pre-emergence, 240 h; for Corn plant response rating (crop injury, 0 = no effect, 100 = complete kill) at 500 g/ha: 500 g ai/ha
How it was run: (§1)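 Greenhouse pot test, 10 days. Compound (non-phytotoxic solvent, surfactant) sprayed on soil at seeding or on seedlings at one- to two-leaf stage. Visual injury rated 0–100 against untreated plants.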

foxtail, giant = assay: Test A preemergence; assay type: in vivo, Setaria faberi; settings: for pest or weed control at 125 g/ha / pest or weed control at 500 g/ha: Setaria faberi, pre-emergence, 240 h, read-out: Plant response rating, Foxtail, Giant; for pest or weed control at 500 g/ha: 500 g ai/ha
How it was run: as §1

oat, wild [1] = assay: Test A preemergence; assay type: in vivo, Avena fatua; settings: for pest or weed control at 125 g/ha / pest or weed control at 500 g/ha: Avena fatua, pre-emergence, 240 h, read-out: Plant response rating, Oat, Wild; for pest or weed control at 125 g/ha / Plant response rating, Oat, Wild: 0 to 100 scale; for pest or weed control at 500 g/ha: 0 to 100 scale (0 no effect, 100 complete control), 10 days
How it was run: as §1

pigweed, palmer [2] = assay: Test A preemergence; assay type: in vivo, Amaranthus palmeri; settings: for pest or weed control at 125 g/ha / pest or weed control at 500 g/ha: Amaranthus palmeri, pre-emergence, 240 h, read-out: Plant response rating, Pigweed, Palmer; for pest or weed control at 500 g/ha: 500 g ai/ha
How it was run: as §1

ragweed = assay: Test A preemergence; assay type: in vivo, Ambrosia artemisiifolia; settings: for pest or weed control at 125 g/ha / pest or weed control at 500 g/ha: Ambrosia artemisiifolia, pre-emergence, 240 h, read-out: Plant response rating, Ragweed; for pest or weed control at 500 g/ha: 500 g ai/ha
How it was run: as §1

soybean = assay: Test A preemergence; assay type: in vivo, Glycine max; settings: for plant injury at 125 g/ha / plant injury at 500 g/ha: Glycine max, pre-emergence, 240 h, read-out: Plant response rating, Soybean; for plant injury at 125 g/ha / Plant response rating, Soybean: 0 to 100 scale; for plant injury at 500 g/ha: 0 to 100 scale (0 no effect, 100 complete control), 10 days
How it was run: as §1

blackgrass = assay: Test A postemergence; assay type: in vivo, Alopecurus myosuroides; settings: for pest or weed control at 125 g/ha / pest or weed control at 500 g/ha: Alopecurus myosuroides, post-emergence, 240 h
How it was run: as §1

kochia = assay: Test A postemergence; assay type: in vivo, Bassia scoparia; settings: postemergence, 10 days; for pest or weed control at 125 g/ha / pest or weed control at 500 g/ha: Bassia scoparia, post-emergence, 240 h, 0 to 100 scale (0 no effect, 100 complete control); for pest or weed control at 500 g/ha: 500 g ai/ha
How it was run: as §1

oat, wild [3] = assay: Test A postemergence; assay type: in vivo, Avena fatua; settings: postemergence, 10 days; for pest or weed control at 500 g/ha: read-out: Plant response rating, Oat, Wild
How it was run: as §1

pigweed, palmer [4] = assay: Test A postemergence; assay type: in vivo, Amaranthus palmeri; settings: postemergence, 10 days; for pest or weed control at 500 g/ha: 500 g ai/ha, visual injury, read-out: Plant response rating, Pigweed, Palmer
How it was run: as §1

wheat = assay: Test A postemergence; assay type: in vivo, Triticum aestivum; settings: postemergence, 10 days; for plant injury at 500 g/ha: 500 g ai/ha, visual injury, read-out: Plant response rating, Wheat
How it was run: as §1

horseweed = assay: Test A postemergence; assay type: in vivo, Erigeron canadensis; settings: postemergence, 10 days; for pest or weed control at 125 g/ha / pest or weed control at 500 g/ha: Erigeron canadensis, post-emergence, 240 h, 0 to 100 scale (0 no effect, 100 complete control); for pest or weed control at 500 g/ha: 500 g ai/ha
How it was run: as §1

barnyardgrass = assay: Test B flooded paddy test; assay type: in vivo, Echinochloa crus-galli; settings: 250 g ai/ha, Flood, 13 days, 0 to 100 scale (0 no effect, 100 complete control); for pest or weed control at 250 g/ha: Echinochloa crus-galli, 312 h, read-out: Plant response rating, Barnyardgrass
How it was run: (§2)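 Plants at the 2-leaf stage were flooded to 3 cm above the soil, and test compounds were applied directly into the paddy water, with that depth held throughout. After 13 days in a greenhouse, injury was rated visually against untreated controls on a 0–100 scale (100 = complete control).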

rice = assay: Test B flooded paddy test; assay type: in vivo, Oryza sativa; settings: Oryza sativa, 312 h; 250 g ai/ha, Flood, 13 days, 0 to 100 scale (0 no effect, 100 complete control); read-out: Plant response rating, Rice
How it was run: as §2

[5] = 125 g ai/ha, visual injury after 10 days, 0 to 100 scale, 0 is no effect, 100 is complete control
[6] = 0 to 100 scale (0 no effect, 100 complete control), 10 days
[7] = 125 g ai/ha, visual injury after 10 days, 0 is no effect, 100 is complete control
[8] = visual injury, read-out: Plant response rating, Kochia
[9] = Avena fatua, post-emergence, 240 h, 500 g ai/ha, visual injury, 0 to 100 scale (0 no effect, 100 complete control)
[10] = Amaranthus palmeri, post-emergence, 240 h, 0 to 100 scale (0 no effect, 100 complete control)
[11] = Triticum aestivum, post-emergence, 240 h, 0 to 100 scale (0 no effect, 100 complete control)
[12] = visual injury, read-out: Plant response rating, Horseweed
[13] = visual injury after 10 days, 0 to 100 scale, 0 is no effect, 100 is complete control
[14] = 500 g ai/ha, visual injury after 10 days, 0 is no effect, 100 is complete control
[15] = 125 g ai/ha, 0 to 100 scale, 0 no effect, 100 complete control

Cc1ccc(-n2cnc(C3CCC3)n2)cc1C(=O)N1C[C@H](C)Oc2c(Cl)cccc21 [Compound 96, [(2S)-8-Chloro-2,3-dihydro-2-methyl-4H-1,4-benzoxazin-4-yl][5-(3-cyclobutyl-1H-1,2,4-triazol-1-yl)-2-methylphenyl]methanone]
Corn plant response rating (crop injury, 0 = no effect, 100 = complete kill) at 125 g/ha (corn; [5]): 30%
Corn plant response rating (crop injury, 0 = no effect, 100 = complete kill) at 500 g/ha (corn; [6]): 50%
pest or weed control at 125 g/ha (foxtail, giant; [5]): 100%
pest or weed control at 500 g/ha (foxtail, giant; [6]): 100%
pest or weed control at 125 g/ha (oat, wild [1]; [7]): 50%
pest or weed control at 500 g/ha (oat, wild [1]; 500 g ai/ha): 80%
pest or weed control at 125 g/ha (pigweed, palmer [2]; [5]): 100%
pest or weed control at 500 g/ha (pigweed, palmer [2]; [6]): 100%
pest or weed control at 125 g/ha (ragweed; [5]): 30%
pest or weed control at 500 g/ha (ragweed; [6]): 30%
plant injury at 125 g/ha (soybean; [7]): 50%
plant injury at 500 g/ha (soybean; 500 g ai/ha): 50%
pest or weed control at 125 g/ha (blackgrass; 125 g ai/ha, postemergence, 10 days, 0 to 100 scale (0 no effect, 100 complete control), read-out: Blackgrass plant response rating): 50%
pest or weed control at 500 g/ha (blackgrass; 500 g ai/ha, postemergence, 10 days, visual injury, 0 to 100 scale (0 no effect, 100 complete control), read-out: Plant response rating, Blackgrass): 90%
pest or weed control at 125 g/ha (kochia; 125 g ai/ha, read-out: Kochia plant response rating): 90%
pest or weed control at 500 g/ha (kochia; [8]): 100%
pest or weed control at 125 g/ha (oat, wild [3]; Avena fatua, post-emergence, 240 h, 125 g ai/ha, 0 to 100 scale (0 no effect, 100 complete control), read-out: Oat, Wild plant response rating): 30%
pest or weed control at 500 g/ha (oat, wild [3]; [9]): 80%
pest or weed control at 125 g/ha (pigweed, palmer [4]; Amaranthus palmeri, post-emergence, 240 h, 125 g ai/ha, 0 to 100 scale (0 no effect, 100 complete control), read-out: Pigweed, Palmer plant response rating): 90%
pest or weed control at 500 g/ha (pigweed, palmer [4]; [10]): 90%
plant injury at 125 g/ha (wheat; Triticum aestivum, post-emergence, 240 h, 125 g ai/ha, 0 to 100 scale (0 no effect, 100 complete control), read-out: Wheat plant response rating): 30%
plant injury at 500 g/ha (wheat; [11]): 40%
pest or weed control at 125 g/ha (horseweed; 125 g ai/ha, read-out: Horseweed plant response rating): 40%
pest or weed control at 500 g/ha (horseweed; [12]): 80%
pest or weed control at 250 g/ha (barnyardgrass): 60%
plant injury at 250 g/ha (rice): 0%

Cc1ccc(-n2cnc(C(C)C)n2)cc1C(=O)N1C[C@H](C)Oc2c(Cl)cccc21 [Compound 73, [(2S)-8-Chloro-2,3-dihydro-2-methyl-4H-1,4-benzoxazin-4-yl][2-methyl-5-[3-(1-methylethyl)-1H-1,2,4-triazol-1-yl]phenyl]methanone]
Corn plant response rating (crop injury, 0 = no effect, 100 = complete kill) at 125 g/ha (corn; [5]): 60%
Corn plant response rating (crop injury, 0 = no effect, 100 = complete kill) at 500 g/ha (corn; [6]): 80%
pest or weed control at 125 g/ha (foxtail, giant; [5]): 100%
pest or weed control at 500 g/ha (foxtail, giant; [6]): 100%
pest or weed control at 125 g/ha (oat, wild [1]; [7]): 80%
pest or weed control at 500 g/ha (oat, wild [1]; 500 g ai/ha): 90%
pest or weed control at 125 g/ha (pigweed, palmer [2]; [5]): 100%
pest or weed control at 500 g/ha (pigweed, palmer [2]; [6]): 100%
pest or weed control at 125 g/ha (ragweed; [5]): 30%
pest or weed control at 500 g/ha (ragweed; [6]): 90%
plant injury at 125 g/ha (soybean; [7]): 60%
plant injury at 500 g/ha (soybean; 500 g ai/ha): 100%
pest or weed control at 125 g/ha (blackgrass; 125 g ai/ha, postemergence, 10 days, visual injury, 0 to 100 scale (0 no effect, 100 complete control), read-out: Plant response rating, Blackgrass): 90%
pest or weed control at 500 g/ha (blackgrass; 500 g ai/ha, Postemergence, 0 to 100 scale, read-out: Plant response rating, Blackgrass): 90%
pest or weed control at 125 g/ha (kochia; 125 g ai/ha, visual injury, read-out: Plant response rating, Kochia): 90%
pest or weed control at 500 g/ha (kochia; [8]): 100%
pest or weed control at 500 g/ha (oat, wild [3]; [9]): 80%
pest or weed control at 500 g/ha (pigweed, palmer [4]; [10]): 90%
plant injury at 500 g/ha (wheat; [11]): 80%
pest or weed control at 125 g/ha (horseweed; 125 g ai/ha, visual injury, read-out: Plant response rating, Horseweed): 30%
pest or weed control at 500 g/ha (horseweed; [12]): 50%
pest or weed control at 250 g/ha (barnyardgrass): 45%
plant injury at 250 g/ha (rice): 20%

CC(C)c1ncn(-c2cc(C(=O)N3C[C@H](C)Oc4c(Cl)cccc43)c3ccccc3c2)n1 [Compound 145]
Plant response rating, Corn (corn; 125 g ai/ha, 0 to 100 scale): 0
Corn plant response rating (crop injury, 0 = no effect, 100 = complete kill) at 500 g/ha (corn; [13]): 0%
Plant response rating, Foxtail, Giant (foxtail, giant; 125 g ai/ha, 0 to 100 scale): 70
pest or weed control at 500 g/ha (foxtail, giant; [13]): 80%
Plant response rating, Oat, Wild (oat, wild [1]; 125 g ai/ha): 0
Plant response rating, Oat, Wild (oat, wild [1]; [14]): 50
Plant response rating, Pigweed, Palmer (pigweed, palmer [2]; 125 g ai/ha, 0 to 100 scale): 80
pest or weed control at 500 g/ha (pigweed, palmer [2]; [13]): 100%
Plant response rating, Ragweed (ragweed; 125 g ai/ha, 0 to 100 scale): 0
pest or weed control at 500 g/ha (ragweed; [13]): 0%
Plant response rating, Soybean (soybean; 125 g ai/ha): 0
Plant response rating, Soybean (soybean; [14]): 0
Blackgrass plant response rating (blackgrass; 125 g ai/ha, postemergence, 10 days, 0 to 100 scale, 0 no effect, 100 complete control): 40
Plant response rating, Blackgrass (blackgrass; 500 g ai/ha, postemergence, 10 days, visual injury, 0 to 100 scale (0 no effect, 100 complete control)): 70
Kochia plant response rating (kochia; [15]): 70
pest or weed control at 500 g/ha (kochia; [8]): 80%
Oat, Wild plant response rating (oat, wild [3]; [15]): 10
Plant response rating, Oat, Wild (oat, wild [3]; 500 g ai/ha, visual injury, 0 to 100 scale (0 no effect, 100 complete control)): 30
Pigweed, Palmer plant response rating (pigweed, palmer [4]; [15]): 70
pest or weed control at 500 g/ha (pigweed, palmer [4]; [10]): 90%
Wheat plant response rating (wheat; [15]): 30
plant injury at 500 g/ha (wheat; [11]): 30%
Horseweed plant response rating (horseweed; [15]): 0
pest or weed control at 500 g/ha (horseweed; [12]): 0%
Plant response rating, Barnyardgrass (barnyardgrass): 45
plant injury at 250 g/ha (rice): 0%
